Data taken from patent US20220354844A1, “METHODS OF TREATING METABOLIC DISEASES WITH FUSED BICYCLIC PYRAZOLES” (Belite Bio, Inc, priority 2017, published 2022).
“And” between values parts separate entries of the source, which are not always exact repeats. Equal values may be shown once.

Tests used:
[1] = Compound 1 single dose non-human primate PK study; assay type: in vivo, Cynomolgus Macaques; settings: NHP; for Vd: read-out: Vss
Experimental: A pharmacokinetic study of Compound 1 following a single intravenous or oral dose administration to non-human primates (Cynomolgus Macaques) was conducted, the results of which are found in Table 2 and FIGS. 1-8.

[2] = Compound 1 single dose rat PK study; assay type: in vivo, male Sprague Dawley rats; settings: for Vd: read-out: Vss
Experimental: A pharmacokinetic study of Compound 1 following a single intravenous or oral dose administration to male Sprague Dawley rats was conducted, the results of which are found in Table 3 and FIGS. 9-14.

[3] = system: Subjects with NAFLD or NASH; test: Treatment of NAFLD and NASH in humans; assay type: in vivo, human; settings: 50 or 100 mg/day for 6 months
Experimental: Subjects with NAFLD or NASH are treated with doses of either 50 or 100 mg/day of compound 1 or 2 for 6 months. Subjects are permitted their usual other medications (e.g. antidiabetic medications such as metformin or […]) but not glitazones, PPAR agonists, OCA, or similar medications. The subjects are assessed before the study, and at intervals during the study, such as every 4 weeks during the study and 4 weeks after the last dose of compound 1 or 2, for safety and pharmacodynamic evaluations.
MRIs of the subjects' livers are taken every 4 weeks during the study and 4 weeks after completion of compound 1 or 2 dosing, to determine hepatic fat; and liver biopsies are taken before the study (to establish the diagnosis) and 4 weeks after completion of compound 1 or 2 dosing. At each visit, after a 12-hour fast, blood is drawn and urine collected; and a standard metabolic panel, complete blood count, and standard urinalysis are performed. Blood is analyzed for total cholesterol, HDL-C, LDL-C, VLDL-C, TGs, apoB, and liver transaminases. The subjects also maintain health diaries, which are reviewed at each visit.

[4] = Compound 1 single dose mouse PK study; assay type: in vivo, male CD-1 mice
Experimental: A pharmacokinetic study of Compound 1 following a single intravenous or oral dose administration to male CD-1 mice was conducted, the results of which are found in Table 4 and FIGS. 15-20.

[5] = single iv dose 1 mg/kg, individual animals, 1 mg/kg
[6] = single po dose 5 mg/kg, individual animals, 5 mg/kg
[7] = cynomolgus monkey, plasma, iv, 1 mg/kg, single iv dose 1 mg/kg, Mean of the 3 animals
[8] = cynomolgus monkey, plasma, iv, 1 mg/kg, single iv dose 1 mg/kg, individual animals
[9] = cynomolgus monkey, plasma, po, 5 mg/kg, single po dose 5 mg/kg, Mean of the 3 animals
[10] = cynomolgus monkey, plasma, po, 5 mg/kg, single po dose 5 mg/kg, individual animals
[11] = male, Sprague Dawley, plasma, iv, 2 mg/kg, single iv dose 2 mg/kg, Mean of the 3 rats
[12] = male, Sprague Dawley, plasma, iv, 2 mg/kg, single iv dose 2 mg/kg, individual rats
[13] = male, Sprague Dawley, plasma, po, 5 mg/kg, single po dose 5 mg/kg, Mean of the 3 rats
[14] = male, Sprague Dawley, plasma, po, 5 mg/kg, single po dose 5 mg/kg, individual rats
[15] = single iv dose 2 mg/kg, individual rats, 2 mg/kg
[16] = single po dose 5 mg/kg, individual rats, 5 mg/kg
[17] = male, CD-1, plasma, single iv dose 2 mg/kg
[18] = male, CD-1, plasma, single po dose 5 mg/kg

AUC inf [1, 5]: 5217 hr.ng/m1 and 3761 hr.ng/m1 | AUCLAST [1, 5]: 5165 ng·h/mL and 3731 ng·h/mL | Cl [1, 5]: 3.2 mL/min/kg and 4.43 mL/min/kg | Cmax [1, 5]: 968 ng/mL and 704 ng/mL | MRT last [1, 5]: 6.8 h and 6.7 h | MRTinf [1, 5]: 7.3 h and 7.1 h | Vss [1, 5]: 1.399 L/kg and 1.886 L/kg | t1/2 [1, 5]: 7.8 h and 7.4 h | F ([1]; single po dose 5 mg/kg, Mean of the 3 animals): 18.7% | AUC inf [1, 6]: 3601 hr.ng/m1 and 3918 hr.ng/m1 | AUCLAST [1, 6]: 3525 ng·h/mL and 3852 ng·h/mL | Cmax [1, 6]: 363 ng/mL and 369 ng/mL | F [1, 6]: 21.6% and 16.5% | MRT last [1, 6]: 10.0 h and 10.3 h | MRTinf [1, 6]: 11.1 h | Tmax [1, 6]: 2 h | t1/2 [1, 6]: 8.7 h and 8.1 h | AUC(0-inf) [1, 7]: 4370 ng·h/mL | AUC(0-t) [1, 7]: 4340 ng·h/mL | MRT inf [1, 7]: 6.9 h | clearance [1, 7]: 3.88 mL/min/kg | half-life [1, 7]: 7.7 h | Tmax ([1]; cynomolgus monkey, plasma, iv, 1 mg/kg, single iv dose 1 mg/kg, Mean of the 3 animals, first plasma collection time listed as Tmax, read-out: Tmax): 0.27 h | Cmax ([1]; cynomolgus monkey, plasma, iv, 1 mg/kg, single iv dose 1 mg/kg, Mean of the 3 animals, read-out: Cmax): 881 ng/mL | MRT last ([1]; cynomolgus monkey, plasma, iv, 1 mg/kg, single iv dose 1 mg/kg, Mean of the 3 animals, read-out: MRT last): 6.4 h | Vd [1, 7]: 1.6 L/kg | AUC(0-inf) [1, 8]: 4140 ng·h/mL | AUC(0-t) [1, 8]: 4110 ng·h/mL | MRT inf [1, 8]: 6.3 h | clearance [1, 8]: 4.02 mL/min/kg | half-life [1, 8]: 7.8 h | Cmax ([1]; cynomolgus monkey, plasma, iv, 1 mg/kg, single iv dose 1 mg/kg, individual animals, read-out: Cmax): 970 ng/mL | MRT last ([1]; cynomolgus monkey, plasma, iv, 1 mg/kg, single iv dose 1 mg/kg, individual animals, read-out: MRT last): 5.9 h | Vd [1, 8]: 1.52 L/kg | AUC(0-inf) [1, 9]: 4080 ng·h/mL | AUC(0-t) [1, 9]: 3990 ng·h/mL | MRT inf [1, 9]: 11.3 h | half-life [1, 9]: 8.5 h | Cmax ([1]; cynomolgus monkey, plasma, po, 5 mg/kg, single po dose 5 mg/kg, Mean of the 3 animals, read-out: Cmax): 406 ng/mL | MRT last ([1]; cynomolgus monkey, plasma, po, 5 mg/kg, single po dose 5 mg/kg, Mean of the 3 animals, read-out: MRT last): 10.2 h | Tmax ([1]; cynomolgus monkey, plasma, po, 5 mg/kg, single po dose 5 mg/kg, Mean of the 3 animals, read-out: Tmax): 1.67 h | AUC(0-inf) [1, 10]: 4720 ng·h/mL | AUC(0-t) [1, 10]: 4580 ng·h/mL | MRT inf [1, 10]: 11.7 h | half-life [1, 10]: 8.8 h | Cmax ([1]; cynomolgus monkey, plasma, po, 5 mg/kg, single po dose 5 mg/kg, individual animals, read-out: Cmax): 485 ng/mL | MRT last ([1]; cynomolgus monkey, plasma, po, 5 mg/kg, single po dose 5 mg/kg, individual animals, read-out: MRT last): 10.2 h | Tmax ([1]; cynomolgus monkey, plasma, po, 5 mg/kg, single po dose 5 mg/kg, individual animals, read-out: Tmax): 1 h | AUC(0-inf) [2, 11]: 3970 ng·h/mL | AUC(0-t) [2, 11]: 3950 ng·h/mL | MRT inf [2, 11]: 3.3 h | MRT last [2, 11]: 3 h | clearance [2, 11]: 8.68 mL/min/kg | Tmax ([2]; male, Sprague Dawley, plasma, iv, 2 mg/kg, single iv dose 2 mg/kg, Mean of the 3 rats, first plasma collection time listed as Tmax): 0.08 h | Cmax ([2]; male, Sprague Dawley, plasma, iv, 2 mg/kg, single iv dose 2 mg/kg, Mean of the 3 rats, read-out: Cmax): 1870 ng/mL | Vd [2, 11]: 1.68 L/kg | half-life ([2]; male, Sprague Dawley, plasma, iv, 2 mg/kg, single iv dose 2 mg/kg, Mean of the 3 rats, read-out: t1/2 (converted)): 8.5 h | AUC(0-inf) [2, 12]: 3610 ng·h/mL | AUC(0-t) [2, 12]: 3600 ng·h/mL | MRT inf [2, 12]: 3 h | MRT last [2, 12]: 2.8 h | clearance [2, 12]: 9.23 mL/min/kg | Tmax ([2]; male, Sprague Dawley, plasma, iv, 2 mg/kg, single iv dose 2 mg/kg, individual rats, first plasma collection time listed as Tmax): 0.08 h | Cmax ([2]; male, Sprague Dawley, plasma, iv, 2 mg/kg, single iv dose 2 mg/kg, individual rats, read-out: Cmax): 1670 ng/mL | Vd [2, 12]: 1.69 L/kg | half-life ([2]; male, Sprague Dawley, plasma, iv, 2 mg/kg, single iv dose 2 mg/kg, individual rats, read-out: t1/2 (converted)): 8.6 h | AUC(0-inf) [2, 13]: 2680 ng·h/mL | AUC(0-t) [2, 13]: 2640 ng·h/mL | MRT inf [2, 13]: 9.9 h | MRT last [2, 13]: 9 h | Tmax [2, 13]: 1.42 h | Cmax ([2]; male, Sprague Dawley, plasma, po, 5 mg/kg, single po dose 5 mg/kg, Mean of the 3 rats, read-out: Cmax): 390 ng/mL | AUC(0-inf) [2, 14]: 3210 ng·h/mL | AUC(0-t) [2, 14]: 3170 ng·h/mL | MRT inf [2, 14]: 8.7 h | MRT last [2, 14]: 8 h | Cmax ([2]; male, Sprague Dawley, plasma, po, 5 mg/kg, single po dose 5 mg/kg, individual rats, read-out: Cmax): 456 ng/mL | half-life ([2]; male, Sprague Dawley, plasma, po, 5 mg/kg, single po dose 5 mg/kg, individual rats, read-out: t1/2 (converted)): 8.2 h | half-life ([2]; male, Sprague Dawley, plasma, po, 5 mg/kg, t1/2, rat, single po dose 5 mg/kg, Mean of the 3 rats, heading: t1/2): 7.6 h | AUCLAST [2, 15]: 5020 ng·h/mL and 3244 ng·h/mL | AUCinf [2, 15]: 5055 ng·h/mL and 3256 ng·h/mL | Cl [2, 15]: 6.6 mL/min/kg and 10.2 mL/min/kg | Cmax [2, 15]: 2400 ng/mL and 1536 ng/mL | MRTinf [2, 15]: 3.7 h and 3.1 h | MRTlast [2, 15]: 3.2 h and 2.9 h | t1/2 [2, 15]: 11.0 h and 6.0 h | F ([2]; single po dose 5 mg/kg, Mean of the 3 rats): 27.0% | AUCLAST [2, 16]: 2683 ng·h/mL and 2069 ng·h/mL | AUCinf [2, 16]: 2698 ng·h/mL and 2138 ng·h/mL | Cmax [2, 16]: 274 ng/mL and 440 ng/mL | F [2, 16]: 32.3% and 27.2% and 21.5% | MRTinf [2, 16]: 8.2 h and 12.8 h | MRTlast [2, 16]: 11.2 h | t1/2 [2, 16]: 6.2 h and 8.5 h | AUC(0-inf) [4, 17]: 2460 ng·h/mL | AUC(0-t) [4, 17]: 2400 ng·h/mL | MRT inf [4, 17]: 2.5 h | MRT last [4, 17]: 2.2 h | clearance [4, 17]: 13.5 mL/min/kg | half-life [4, 17]: 2.1 h | Cmax ([4]; male, CD-1, plasma, single iv dose 2 mg/kg, maximum observed concentration at first time point): 1460 ng/mL | Vd ([4]; male, CD-1, plasma, single iv dose 2 mg/kg, read-out: Vss): 2.02 L/kg | AUC(0-inf) [4, 18]: 1810 ng·h/mL | AUC(0-t) [4, 18]: 1800 ng·h/mL | Cmax [4, 18]: 278 ng/mL | MRT inf [4, 18]: 5 h | MRT last [4, 18]: 4.9 h | Tmax [4, 18]: 0.25 h | half-life [4, 18]: 2.9 h | Tmax ([4]; male, CD-1, single iv dose 2 mg/kg, first plasma collection time): 0.08 h | F ([4]; single po dose 5 mg/kg): 29.4%
SMILES: CC(=O)N1CCc2c(C(=O)N3CCC(c4ccc(F)c(F)c4C(F)(F)F)CC3)n[nH]c2C1 [Compound 1, 1-(3-(4-(3,4-difluoro-2-(trifluoromethyl)phenyl)piperidine-1-carbonyl)-1,4,5,7-tetrahydro-6H-pyrazolo[3,4-c]pyridin-6-yl)ethan-1-one]
improvement in their disease, as manifested by MRI and liver biopsy [3]: dose-related improvement
